Results taken from patent US10072304B2, “Nuclear localization of Src-family tyrosine kinases is required for growth factor-induced euchromatinization” (National University Corporation Chiba University, priority 2009, dated 2018).
Entries after “also recorded” stand apart in the source; their conditions may differ.

Legend:
SYF cells [1] = test: Anti-pTyr immunofluorescent staining of tyrosine phosphorylation in SYF cells; type: cell-based, mouse; details: 3 mM Na3VO4 for 3 h, FIG. 46
Procedure: (§1) COS-1, HeLa cells (Japanese Collection of Research Bioresources, Osaka), MCF-7 (provided by H. Saya), A431 (provided by M. N. Fukuda), HEK293 (provided by M. Tagawa), HCT116 (provided by T. Tomonaga), and SYF ([37]; provided by M. Okada and S. Nada) cells were cultured in Iscove's modified DME containing 5% fetal bovine serum (FBS). Cells were transiently transfected with 0.5 μg of plasmid vector using Trans IT Transfection reagent (Mirus) or with 1 μg of plasmid vector using linear polyethylenimine (25 kDa) (Polyscience, Inc.). For growth factor stimulation, COS-1 cells were starved under low serum conditions (0.05% FBS) for 24 h and restimulated with serum (5% FBS). […]
(§2) Confocal and Nomarski differential-interference-contrast images were obtained using a Fluoview FV500 confocal laser scanning microscope with a 40×1.00 NA oil and a 100×1.35 NA oil immersion objective (Olympus, Tokyo) and an LSM 510 confocal laser scanning microscope with a 63×1.40 NA oil immersion objective (Zeiss), as described. […] Emission signals were detected between 505 and 525 nm for fluorescein, at more than 560 nm for rhodamine and more than 610 nm for PI [44]. […] Fluorescence intensity plots of anti-histone H3K4me3, anti-ATF-2 pT69/71 and anti-HP1α antibody and PI staining (see FIGS. 18B, 19B, and 20B, respectively) were generated using Fluoview version 4.3 software (Olympus, Tokyo). […]

SYF cells [2] = test: Quantitation of chromatin condensation levels (S.D. value of PI intensity per pixel) in SYF cells; type: cell-based, mouse; details: 3 mM Na3VO4 for 3 h
Procedure: as §1, §2

[Na+].[Na+].[Na+].[O]=[V]([O-])([O-])[O-] [Na3VO4, sodium orthovanadate]
tyrosine phosphorylation (SYF cells [1]): increased tyrosine phosphorylation at levels comparable to those in COS-1 cells | levels of chromatin hypo- and hypercondensation (SYF cells [2]; SYF cells, FIG. 49): much lower than those in Na3VO4-treated COS-1 cells; also recorded: modestly induced | chromatin hypo- and hypercondensation (SYF cells [2]; SYF/c-Src-wt cells, FIGS. 48A and 49): an increase
